From patent US20240277841A2, “HUMAN CHIMERIC ANTIGEN RECEPTOR NEUTROPHILS, COMPOSITIONS, KITS AND METHODS OF USE” (Purdue Research Foundation, priority 2020, published 2024)
“Also recorded” adds a separate entry of the source.

Legend:
glioblastoma = assay: Tumor lysis by CAR neutrophils with inhibitors; format: cell-based; conditions: for glioblastoma viability: co-incubation with CAR neutrophils
TGFβ = assay: hPSC differentiation: endothelial-to-hematopoietic transition; format: cell-based, human; conditions: 10 μM from day 4
Method: H9 was obtained from WiCell and maintained on Matrigel- or iMatrix 511-coated plates in mTeSR plus medium according to a previously published method. For differentiation, hPSCs were dissociated with 1 mM EDTA and seeded onto iMatrix 511-coated, 24-well plates at a cell density between 10,000 and 80,000 cells/cm^2 in mTeSR plus medium with 5 μM Y27632 for 24 hours (day −1). At day 0, cells were treated with 6 μM CHIR99021 (CHIR) in DMEM medium supplemented with 100 μg/mL ascorbic acid (DMEM/Vc), followed by a medium change with LasR basal medium at day 1, day 2, and day 3 and the addition of 50 ng/ml VEGF to the medium from day 2 to day 4. At day 4, medium was replaced by Stemline II medium (Sigma) supplemented with 10 μM SB431542. After 2 days, SB431542-containing medium was aspirated, and cells were maintained in Stemline II medium with 50 ng/mL SCF and FLT3L. At day 9 and day 12, the medium was aspirated and changed to Stemline II medium containing 50 ng/mL SCF and FLT3L and 25 ng/mL GM-CSF. At day 15, floating cells were gently harvested and used for terminal neutrophil differentiation. The floating cells were cultured in Stemline II medium supplemented with GlutaMAX 100X, ExCyte (0.2%), human G-CSF (150 ng/mL), and Am580 retinoic acid agonist (2.5 μM). After three days, the same medium with all components and cytokines was added to the top of the existing culture. […]

tumor cells = assay: Phagocytosis of tumor cells by neutrophils with inhibitor; format: cell-based; conditions: 5 μM
U87MG cells = assay: Neutrophil infiltration of 3D tumor spheroids; format: cell-based, human; conditions: pre-treating neutrophils
Method: A 3-D biomimetic GBM model was constructed to mimic an in vivo tumor niche-like microenvironment with a dense, extracellular matrix and heterogeneous tumor cell subtypes.
Neutrophil infiltration of 3D tumor spheroids. The 3D tumor spheroids were obtained using the hanging drop method. Briefly, U87MG cells were suspended in MEM medium with 10% FBS and 0.3% methylcellulose at 2×10^6 cells/mL and deposited onto an inverted lid of 96-well plate as an individual drop using a 20 μL pipettor. The cover lid was then placed back onto the PBS-filled bottom chamber and incubated at 37° C. and 5% CO2. The hanging drops were monitored daily until cell aggregates were formed in ˜5-7 days. Each cell aggregate was transferred to a single well of a 24-well plate for the substream analysis. To assess the tumor penetration capability of CLTX T-CAR neutrophils, 2×10^5 neutrophils/well were added to the wells of 24-well plate and incubated with the tumor spheroids. After co-incubation for 24 hours, the tumor spheroids were fixed and stained for CD45 and DAPI. For the cytotoxicity analysis, the mixture of neutrophils and tumor spheroids were stained with 1 μM Calcein-AM and 1 μM propidium iodide (PI). The stained cells were then imaged using a Leica DMi-8 fluorescent microscope.

[1] = system: neutrophil extracellular trap (NET) formation; conditions: 3 μg/ml or more
invertebrates = conditions: cited from earlier work
[2] = system: glioblastomas and other tumors; conditions: cited from earlier work
mammals = conditions: cited from earlier work
[3] = system: day 15 myeloid progenitors; assay: Myeloid progenitor monocyte/macrophage potential by flow cytometry; format: cell-based, human; conditions: compared to GM-CSF
Method: (§1) Differentiated cells were gently pipetted and filtered through a 70 or 100 μm strainer sitting on a 50 mL tube. The cells were then pelleted by centrifugation and washed three times with PBS−/− solution containing 1% BSA. The cells were stained with appropriately conjugated antibodies for 25 min at room temperature in the dark and analyzed in an Accuri C6 plus cytometer (Beckton Dickinson) after washing with BSA-containing PBS−/− solution. Flow Jo software was used to process the collected flow data.
as §1, with “Flow cytometry analysis. Differentiated” for “Differentiated”, “twice” for “three times”, “bovine serum albumin (BSA).” for “BSA.”, “appropriate” for “appropriately”, “dark,” for “the dark”, “FlowJo” for “Flow Jo”

CC(=O)N[C@@H](CS)C(=O)O [N-acetylcysteine]
tumor lysis by CAR neutrophils (glioblastoma): significantly blocked | glioblastoma viability (glioblastoma): higher viability

NC(=O)c1ccc(-c2nc(-c3ccc4c(c3)OCO4)c(-c3ccccn3)[nH]2)cc1 [SB431542]
endothelial-to-hematopoietic transition (generation of CD45+CD43+ HSPCs) (TGFβ): promoted endothelial-to-hematopoietic transition; also recorded: promoted EHT process

C=C1[C@@H](C)[C@H]2[C@H](Cc3ccccc3)NC(=O)[C@]23[C@H](OC(C)=O)/C=C/[C@@](C)(O)C(=O)[C@@H](C)C/C=C/[C@H]3[C@@H]1O [cytochalasin D]
phagocytosis of tumor cells by neutrophils (tumor cells): significantly reduced | tumor lysis by CAR neutrophils (glioblastoma): significantly blocked | glioblastoma viability (glioblastoma): higher viability | effect on tumor cytotoxicity of CAR-neutrophils (U87MG cells): significantly reduced | effect on tumor-infiltrating activity of CAR-neutrophils (U87MG cells): significantly reduced

CC(C)c1cccc(C(C)C)c1O [propofol]
tumor lysis by CAR neutrophils (glioblastoma): significantly blocked | NET formation in neutrophils [1]: significant decrease

chlorotoxin [CLTX]
toxicity to invertebrates (invertebrates): highly toxic | tumor binding [2]: binds selectively | toxicity to mammals (mammals): nontoxic

B1: G-CSF: recombinant human granulocyte colony-stimulating factor (protein, UniProt P09919 31-207, looked up)
Granulocyte …: TPLGPASSLPQSFLLKCLEQVRKIQGDGAALQEKLVSECATYKLCHPEELVLLGHSLGIPWAPLSSCPSQALQLAGCLSQLHSGLFLYQGLLQALEGISPELGPTLDTLQLDVADFATTIWQQMEELGMAPALQPTQGAMPAFASAFQRRAGGVLVASHLQSFLEVSYRVLRHLAQP
number of CD14+ monocytes/macrophages [3]: significantly decreased

B2: soluble MMP2: soluble matrix metallopeptidase 2 used to pre-treat neutrophils (protein, UniProt P08253 110-660, looked up)
72 kDa type IV collagenase: YNFFPRKPKWDKNQITYRIIGYTPDLDPETVDDAFARAFQVWSDVTPLRFSRIHDGEADIMINFGRWEHGDGYPFDGKDGLLAHAFAPGTGVGGDSHFDDDELWTLGEGQVVRVKYGNADGEYCKFPFLFNGKEYNSCTDTGRSDGFLWCSTTYNFEKDGKYGFCPHEALFTMGGNAEGQPCKFPFRFQGTSYDSCTTEGRTDGYRWCGTTEDYDRDKKYGFCPETAMSTVGGNSEGAPCVFPFTFLGNKYESCTSAGRSDGKMWCATTANYDDDRKWGFCPDQGYSLFLVAAHEFGHAMGLEHSQDPGALMAPIYTYTKNFRLSQDDIKGIQELYGASPDIDLGTGPTPTLGPVTPEICKQDIVFDGIAQIRGEIFFFKDRFIWRTVTPRDKPMGPLLVATFWPELPEKIDAVYEAPQEEKAVFFAGNEYWIYSASTLERGYPKPLTSLGLPPDVQRVDAAFNWSKNKKTYIFAGDKFWRYNEVKKKMDPGFPKLIADAWNAIPDNLDAVVDLQGGGHSYFFKGAYYLKLENQSLKSVKFGSIKSDWLGC
effect on tumor cytotoxicity of CAR-neutrophils (U87MG cells): significantly reduced | effect on tumor-infiltrating activity of CAR-neutrophils (U87MG cells): significantly reduced
